{
  "source": "paper PMC11859980",
  "about": "“Tailored Intranasal Albumin Caged Selegiline-α Synuclein siRNA Liposome with Improved Efficiency in Parkinson’s Model” (Pharmaceutics, 2025)",
  "key": {"Parkinson's model rats [1]": {"tested_on": "Parkinson's model rats", "test": "Catalepsy test (bar method), rotenone-induced PD rat model", "assay_type": "in vivo", "conditions": "scale 0 to 5", "procedure": "(§1) PD was simulated in rats by IP injection of rotenone (3 mg/kg/day) for 11 days. […] On day 30 of the experiment, stride length was recorded based on the spatial distance a paw travels during a stride. Animal forepaws were dipped in black non-toxic ink. The length of forelimb and hindlimb steps in the left and right limbs were measured while walking on a clean piece of paper. Stride length was defined as the distance between each step on the same side of the animal’s body, measured from the mid-digit toe of the first step to the heel of the second.\nThe catalepsy score was determined using the bar method, which involved measuring the time that rat consumed to remove its forepaws from the rod. The rats were rated on a five-point scale: 0 (0–5 s), 1 (6–15 s), 2 (16–25 s), 3 (26–35 s), 4 (36–60 s), and 5 (>60 s). The rat’s forepaws were gently put on a steel rod positioned 10 cm above the bench. The recording begins when cataleptic animals have been held in this position for at least 30 s (the adapting time)."}, "Parkinson's model rats [2]": {"tested_on": "Parkinson's model rats", "test": "Stride length measurement, rotenone-induced PD rat model", "assay_type": "in vivo", "conditions": "day 30", "procedure": "as §1"}, "dopamine": {"tested_on": "dopamine", "assay_type": "in vivo, rats", "procedure": "as §1\n(§2) On day 30 of the experiment, rats were scarified and brain tissues were collected. Brain tissues were homogenized as previously described and the concentration of dopamine in the brain homogenate was assessed by HPLC-equipped with a fluorescence detector set at excitation/emission wavelengths of 280/315 nm as described elsewhere. Catalase activity in brain homogenate was measured using colorimetric assay at 570 nm using hydrogen peroxide."}, "catalase": {"tested_on": "catalase", "assay_type": "in vivo, rats", "procedure": "as §1, §2"}, "Parkinson's model rats [3]": {"tested_on": "Parkinson's model rats", "test": "Paw placement and coverage, rotenone-induced PD rat model", "assay_type": "in vivo", "conditions": "day 30", "procedure": "as §1\nOn day 30, the distance between the location of the behind paw and the previously placed contralateral front paw was measured during the same step cycle while the area covered when the forelimbs or hindlimbs perform a stride was recorded as the coverage area."}, "[4]": {"test": "In vivo pharmacokinetic study of Sel in plasma and brain", "conditions": "for AUC(0-t): AUC0–480min; for AUC(0-inf): AUC0–∞; for k el: Kel", "procedure": "All animal experiments were conducted in compliance with the guidelines of the ethical committee, Faculty of Pharmacy, University of Sadat City (approval number RERC-FOP-USC-24-02-08). Adult male albino rats (200 g ± 10%) were randomly divided into two groups each of 48 animals. Animals were subjected to anesthesia using sodium thiopental via intraperitoneal injection (IP). […] At each time point, blood samples were collected from 6 animals by cardiac puncture on heparinized tube and then animals were sacrificed. Blood samples were centrifuged at 9000 rpm and the obtained plasma was stored at −80 °C until analysis. The whole brain was isolated, washed with saline, and homogenized at 10,000 rpm in ice-cold PBS (pH 7.4) for 5 min. The homogenate obtained was centrifuged at 9000 rpm for 15 min. Sel concentration in plasma and brain was quantified using LCMS/MS [49, 50]. The maximum drug concentration (Cmax), time required to achieve Cmax (Tmax), area under the concentration-time curve (AUC0–480min and AUC0–∞), mean residence time (MRT), and elimination rate constant (Kel) in both plasma and brain were calculated. All pharmacokinetics data were calculated using the pharmacokinetic software PK Solver-Add Ins for Microsoft Excel 2007. Additionally, absolute bioavailability as well as the Direct-Transport Percentage (DTP%) and Drug-Targeting Efficiency percentage (DTE%) were calculated using the following equations [51]:DTE = (AUCbrain/AUCplasma) IN/(AUCbrain/AUCplasma) IV × 100(2) DTP% = BIN − BX/BIN × 100(3) where BX = BIV/PIV × PIN\nBX is the brain AUC0–480min fraction contributed by systemic circulation, following IN administration; BIV is the brain AUC0–480min following IV administration; PIV is the plasma AUC0–480min following IV administration; BIN is the brain AUC0–480min following IN administration; PIN is the plasma AUC0–480min following IN administration."}, "Parkinson's model rats [5]": {"tested_on": "Parkinson's model rats", "test": "Open field test, rotenone-induced PD rat model", "assay_type": "in vivo", "conditions": "60-minute observation", "procedure": "as §1\nAn open-field device with 16 sub-squares (40 × 40 × 30 cm; Accuscan Instruments, Columbus, OH, USA) was utilized to examine forelimb and hindlimb locomotor impairments in rats following 30 days of PD induction. Prior to the test, each rat was left in its home cage in the testing area for 2 h before being gently carried by the base of its tail to the center of the open field arena. The animal behavior was then studied for 60 min. To measure the rat’s ambulatory distance, the total number of squares crossed was recorded. Additionally, one of the non-motor characteristics of PD that has been investigated is anxiety, which is indexed by the preference exploration of the open field’s periphery. The number of individuals crossing the center zone was noted."}, "MAO-B": {"tested_on": "MAO-B", "assay_type": "in vivo, rats", "conditions": "rotenone 3 mg/kg/day IP 11 days; treatment days 12 and 20; day 30; ELISA"}, "[6]": {"conditions": "male, albino, rat, in vivo, iv, 1 mg/kg"}, "[7]": {"conditions": "male, albino, rat, in vivo, iv, 1 mg/kg, brain, rat brain, Sel 1 mg/kg, route as in label"}, "[8]": {"conditions": "male, albino, rat, in vivo, iv, 1 mg/kg, plasma, rat plasma, Sel 1 mg/kg, route as in label"}, "[9]": {"conditions": "rotenone 3 mg/kg/day IP 11 days, treatment days 12 and 20, day 30, mean ± SE (n = 6)"}},
  "note": "Like-named read-outs stand apart in the source and are kept apart here.",
  "data": [
    {"smiles": "C#CCN(C)[C@H](C)Cc1ccccc1", "note": "[IV Sel solution, Selegiline]", "values": [
      {"measurement": "Catalepsy score", "setting": "Parkinson's model rats [1]", "result": "2.11 ± 0.11"},
      {"measurement": "Stride length, left forelimb", "setting": "Parkinson's model rats [2]", "result": "119.5 ± 2.66", "unit": "mm"},
      {"measurement": "Dopamine concentration in brain tissue", "setting": "dopamine; rat, in vivo", "result": "125.33 ± 3.71", "unit": "ng/g"},
      {"measurement": "Catalase activity in brain tissue", "setting": "catalase; rat, in vivo", "result": "24 ± 0.82", "unit": "U/mg protein"},
      {"measurement": "Paw placement, left side", "setting": "Parkinson's model rats [3]", "result": "12 ± 0.57", "unit": "mm"},
      {"measurement": "Paw placement, right side", "setting": "Parkinson's model rats [3]", "result": "11.66 ± 1.05", "unit": "mm"},
      {"measurement": "Tmax", "setting": "[4]; [6]", "result": 0.5, "unit": "h"},
      {"measurement": "bioavailability", "setting": "[4]; [6]", "result": 100, "unit": "%"},
      {"measurement": "AUC(0-t)", "setting": "[4]; [7]", "result": "850 ± 60", "unit": "ng·h/mL"},
      {"measurement": "AUC(0-t)", "setting": "[4]; [8]", "result": "1160 ± 90", "unit": "ng·h/mL"},
      {"measurement": "AUC(0-inf)", "setting": "[4]; [7]", "result": "1220 ± 150", "unit": "ng·h/mL"},
      {"measurement": "AUC(0-inf)", "setting": "[4]; [8]", "result": "1540 ± 210", "unit": "ng·h/mL"},
      {"measurement": "k el", "setting": "[4]; [7]", "result": "4.44e-05", "unit": "s⁻¹"},
      {"measurement": "k el", "setting": "[4]; [8]", "result": "4.72e-05", "unit": "s⁻¹"},
      {"measurement": "MRT", "setting": "[4]; [7]", "result": "4.56 ± 0.75", "unit": "h"},
      {"measurement": "MRT", "setting": "[4]; [8]", "result": "4.22 ± 0.84", "unit": "h"},
      {"measurement": "Cmax, brain", "setting": "[4]; rat brain, Sel 1 mg/kg, route as in label", "result": "210 ± 30", "unit": "ng/mL"},
      {"measurement": "Number of center crossings", "setting": "Parkinson's model rats [5]", "result": "8.33 ± 1.49"}
    ]},
    {"smiles": "C=C(C)[C@H]1Cc2c(ccc3c2O[C@@H]2COc4cc(OC)c(OC)cc4[C@@H]2C3=O)O1", "note": "[rotenone]", "values": [
      {"measurement": "Catalepsy score", "setting": "Parkinson's model rats [1]", "result": "4.78 ± 0.17"},
      {"measurement": "Stride length, left forelimb", "setting": "Parkinson's model rats [2]", "result": "102 ± 4.2", "unit": "mm"},
      {"measurement": "Dopamine concentration in brain tissue", "setting": "dopamine; [9]", "result": "49.66 ± 3.23", "unit": "ng/g"},
      {"measurement": "Catalase activity in brain tissue", "setting": "catalase; [9]", "result": "12 ± 0.85", "unit": "U/mg protein"},
      {"measurement": "Paw placement, left side", "setting": "Parkinson's model rats [3]", "result": "24.66 ± 2.02", "unit": "mm"},
      {"measurement": "Paw placement, right side", "setting": "Parkinson's model rats [3]", "result": "30.33 ± 2.95", "unit": "mm"},
      {"measurement": "MAO-B level in brain tissue", "setting": "MAO-B", "result": "256.33 ± 25.6", "unit": "ng/g"},
      {"measurement": "Number of center crossings", "setting": "Parkinson's model rats [5]", "result": "3.00 ± 1.91"}
    ]}
  ]
}
